Reference: patent publication US20210115040A1, “OGA INHIBITOR COMPOUNDS” (Janssen Pharmaceutica NV, priority 2018, published 2021)

Target: T1, recombinant human Meningioma Expressed Antigen 5 (MGEA5), also referred to as O-GlcNAcase (OGA) (Homo sapiens, UniProt O60502)
T1 construct: Full length OGA enzyme was purchased at OriGene (cat #TP322411); purchased OriGene TP322411
T1 sequence (O60502 1-916): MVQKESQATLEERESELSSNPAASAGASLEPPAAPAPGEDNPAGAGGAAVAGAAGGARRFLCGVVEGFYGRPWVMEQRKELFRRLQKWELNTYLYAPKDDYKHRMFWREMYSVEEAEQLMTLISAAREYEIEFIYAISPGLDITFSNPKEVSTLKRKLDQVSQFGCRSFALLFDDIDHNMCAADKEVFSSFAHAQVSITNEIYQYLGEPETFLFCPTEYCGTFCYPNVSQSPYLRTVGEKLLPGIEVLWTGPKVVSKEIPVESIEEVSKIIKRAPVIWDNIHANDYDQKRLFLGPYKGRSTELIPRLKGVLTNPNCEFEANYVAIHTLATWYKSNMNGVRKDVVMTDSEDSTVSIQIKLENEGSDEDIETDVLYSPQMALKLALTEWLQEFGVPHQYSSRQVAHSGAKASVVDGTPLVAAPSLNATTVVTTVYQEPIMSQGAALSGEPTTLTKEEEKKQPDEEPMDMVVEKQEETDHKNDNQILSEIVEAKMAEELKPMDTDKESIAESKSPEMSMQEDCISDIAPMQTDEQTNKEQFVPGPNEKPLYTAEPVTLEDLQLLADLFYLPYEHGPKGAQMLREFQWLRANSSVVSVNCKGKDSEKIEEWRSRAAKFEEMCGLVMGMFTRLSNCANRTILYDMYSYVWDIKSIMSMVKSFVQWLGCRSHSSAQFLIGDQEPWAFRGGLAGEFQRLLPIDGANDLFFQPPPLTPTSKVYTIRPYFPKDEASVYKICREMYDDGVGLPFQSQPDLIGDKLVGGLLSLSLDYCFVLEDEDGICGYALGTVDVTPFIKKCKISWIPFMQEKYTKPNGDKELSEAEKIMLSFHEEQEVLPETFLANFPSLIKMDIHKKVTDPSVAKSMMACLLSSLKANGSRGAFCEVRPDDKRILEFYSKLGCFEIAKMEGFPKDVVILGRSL
Assay: OGA biochemical assay (inhibition of FM-GlcNAc hydrolysis, fluorescence)
Conditions: FM-GlcNAc substrate, 6 h at room temperature, read-out: Enzymatic hOGA, pIC50 (converted)
From the text: The assay is based on the inhibition of the hydrolysis of fluorescein mono-β-D-N-Acetyl-Glucosamine (FM-GlcNAc) (Mariappa et al. 2015, Biochem J 470:255) by the recombinant human Meningioma Expressed Antigen 5 (MGEA5), also referred to as O-GlcNAcase (OGA). The hydrolysis FM-GlcNAc (Marker Gene technologies, cat #M1485) results in the formation of β-D-N-glucosamineacetate and fluorescein. The fluorescence of the latter can be measured at excitation wavelength 485 nm and emission wavelength 538 nm. An increase in enzyme activity results in an increase in fluorescence signal. Full length OGA enzyme was purchased at OriGene (cat #TP322411). The enzyme was stored in 25 mM Tris.HCl, pH 7.3, 100 mM glycine, 10% glycerol at −20° C. Thiamet G and GlcNAcStatin were tested as reference compounds (Yuzwa et al. 2008 Nature Chemical Biology 4:483; Yuzwa et al. 2012 Nature Chemical Biology 8:393). The assay was performed in 200 mM Citrate/phosphate buffer supplemented with 0.005% Tween-20. 35.6 g Na2HPO4 2H2O (Sigma, #C0759) were dissolved in 1 L water to obtain a 200 mM solution. 19.2 g citric acid (Merck, #1.06580) was dissolved in 1 L water to obtain a 100 mM solution. pH of the sodiumphosphate solution was adjusted with the citric acid solution to 7.2. The buffer to stop the reaction consists of a 500 mM Carbonate buffer, pH 11.0. 734 mg FM-GlcNAc were dissolved in 5.48 mL DMSO to obtain a 250 mM solution and was stored at −20° C. OGA was used at a 2 nM concentration and FM-GlcNAc at a 100 uM final concentration. Dilutions were prepared in assay buffer.
50 nl of a compound dissolved in DMSO was dispensed on Black Proxiplate™ 384 Plus Assay plates (Perkin Elmer, #6008269) and 3 μl fl-OGA enzyme mix added subsequently. Plates were pre-incubated for 60 min at room temperature and then 2 μl FM-GlcNAc substrate mix added. […] Plates were briefly centrifuged for 1 min at 1000 rpm and incubate at room temperature for 6 h. To stop the reaction 5 μl STOP buffer were added and plates centrifuge again 1 min at 1000 rpm. Fluorescence was quantified in the Thermo Scientific Fluoroskan Ascent or the PerkinElmer EnVision with excitation wavelength 485 nm and emission wavelength 538 nm.
For analysis a best-fit curve is fitted by a minimum sum of squares method. From this an IC50 value and Hill coefficient was obtained. High control (no inhibitor) and low control (saturating concentrations of standard inhibitor) were used to define the minimum and maximum values.

Row | IC50 | Compound
1 | 0.00501 µM | Cc1cc(OC[C@H]2CCCN(C(C)c3ccc4sc(C)nc4n3)C2)cc(C)n1 (mixture of isomers) [Compound 46ab]
2 | 0.0126 µM | Cc1cc(OC[C@H]2CCCN(C(C)c3ccc4sc(C)nc4n3)C2)nc(C)n1 (mixture of isomers) [Compound 49ab]

The next lines start with the compound.

Row | Compound | IC50
3 | Cc1cc(C[C@H]2CCCN(C(C)c3ccc4oc(C)nc4n3)C2)cc(OC(F)(F)F)n1 (mixture of isomers) [Compound 25ab] | 0.0158 µM
4 | Cc1cc(C[C@H]2CCCN(C(C)c3cnc4oc(C)nc4c3)C2)cc(C)n1 (mixture of isomers) [Compound 30] | 0.0126 µM
5 | Cc1cc(C[C@@H]2CCN(C(C)c3ccc4oc(C(C)C)nc4n3)C2)cc(C)n1 (mixture of isomers) [Compound 31] | > 10 µM
6 | Cc1cc(C[C@@H]2CCN(C(C)c3ccc4sc(C)nc4n3)C2)cc(C)n1 (mixture of isomers) [Compound 43] | 0.0537 µM

Same assay, conditions: FM-GlcNAc substrate, maximal effect, read-out: Enzymatic Emax (%)

Row | Emax | Compound
7 | 101% | Cc1cc(OC[C@H]2CCCN(C(C)c3ccc4sc(C)nc4n3)C2)cc(C)n1 (mixture of isomers) [Compound 46ab]
8 | 100% | Cc1cc(OC[C@H]2CCCN(C(C)c3ccc4sc(C)nc4n3)C2)nc(C)n1 (mixture of isomers) [Compound 49ab]

The remaining lines, values behind:

Row | Compound | Emax
9 | Cc1cc(C[C@H]2CCCN(C(C)c3ccc4oc(C)nc4n3)C2)cc(OC(F)(F)F)n1 (mixture of isomers) [Compound 25ab] | 101%
10 | Cc1cc(C[C@H]2CCCN(C(C)c3cnc4oc(C)nc4c3)C2)cc(C)n1 (mixture of isomers) [Compound 30] | 102%
11 | Cc1cc(C[C@@H]2CCN(C(C)c3ccc4oc(C(C)C)nc4n3)C2)cc(C)n1 (mixture of isomers) [Compound 31] | 30%
12 | Cc1cc(C[C@@H]2CCN(C(C)c3ccc4sc(C)nc4n3)C2)cc(C)n1 (mixture of isomers) [Compound 43] | 103%

Target: T2, OGA (Homo sapiens, UniProt O60502)
T2 construct: HEK293 cells inducible for P301L mutant human Tau (isoform 2N4R) were established at Janssen; endogenous in cells; host or cells: HEK293 cells inducible for P301L mutant human Tau (2N4R)
T2 sequence (O60502 1-916): T1 sequence (O60502 1-916)
Assay: OGA cellular assay (ICC detection of O-GlcNAcylated proteins in HEK293 cells inducible for P301L mutant human Tau)
Type: cell-based
Conditions: HEK293, HEK293 cells inducible for P301L mutant human Tau, maximum = Thiamet G 200 uM
Procedure: HEK293 cells inducible for P301L mutant human Tau (isoform 2N4R) were established at Janssen. Thiamet-G was used for both plate validation (high control) and as reference compound (reference EC50 assay validation). OGA inhibition is evaluated through the immunocytochemical (ICC) detection of O-GlcNAcylated proteins by the use of a monoclonal antibody (CTD110.6; Cell Signaling, #9875) detecting 0-GlcNAcylated residues as previously described (Dorfmueller et al. 2010 Chemistry & biology, 17:1250). Inhibition of OGA will result in an increase of O-GlcNAcylated protein levels resulting in an increased signal in the experiment. Cell nuclei are stained with Hoechst to give a cell culture quality control and a rough estimate of immediate compounds toxicity, if any. ICC pictures are imaged with a Perkin Elmer Opera Phenix plate microscope and quantified with the provided software Perkin Elmer Harmony 4.1.
Cells were propagated in DMEM high Glucose (Sigma, #D5796) following standard procedures. 2 days before the cell assay cells are split, counted and seeded in Poly-D-Lysine (PDL) coated 96-wells (Greiner, #655946) plate at a cell density of 12,000 cells per cm^2 (4,000 cells per well) in 100 μl of Assay Medium (Low Glucose medium is used to reduce basal levels of GlcNAcylation) (Park et al. 2014 The Journal of biological chemistry 289:13519). At the day of compound test medium from assay plates was removed and replenished with 90 μl of fresh Assay Medium. 10 μl of compounds at a 10fold final concentration were added to the wells. Plates were centrifuged shortly before incubation in the cell incubator for 6 hours. DMSO concentration was set to 0.2%. Medium is discarded by applying vacuum. For staining of cells medium was removed and cells washed once with 100 μl D-PBS (Sigma, #D8537). From next step onwards unless other stated assay volume was always 50 μl and incubation was performed without agitation and at room temperature. Cells were fixed in 50 μl of a 4% paraformaldehyde (PFA, Alpha aesar, #043368) PBS solution for 15 minutes at room temperature. […] Before analysis samples were washed 2 times manually for 5 minutes in ICC base buffer.
Imaging is performed using Perkin Elmer Phenix Opera using a water 20× objective and recording 9 fields per well. Intensity readout at 488 nm is used as a measure of O-GlcNAcylation level of total proteins in wells. To assess potential toxicity of compounds nuclei were counted using the Hoechst staining. IC50-values are calculated using parametric non-linear regression model fitting. As a maximum inhibition Thiamet G at a 200 uM concentration is present on each plate. In addition, a concentration response of Thiamet G is calculated on each plate.

Row | Emax | Compound
13 | 85% | Cc1cc(OC[C@H]2CCCN(C(C)c3ccc4sc(C)nc4n3)C2)cc(C)n1 (mixture of isomers) [Compound 46ab]
14 | 68% | Cc1cc(OC[C@H]2CCCN(C(C)c3ccc4sc(C)nc4n3)C2)nc(C)n1 (mixture of isomers) [Compound 49ab]

Continued, compound first:

Row | Compound | Emax
15 | Cc1cc(C[C@H]2CCCN(C(C)c3ccc4oc(C)nc4n3)C2)cc(OC(F)(F)F)n1 (mixture of isomers) [Compound 25ab] | 86%
16 | Cc1cc(C[C@H]2CCCN(C(C)c3cnc4oc(C)nc4c3)C2)cc(C)n1 (mixture of isomers) [Compound 30] | 79%
17 | Cc1cc(C[C@@H]2CCN(C(C)c3ccc4oc(C(C)C)nc4n3)C2)cc(C)n1 (mixture of isomers) [Compound 31] | -7%
18 | Cc1cc(C[C@@H]2CCN(C(C)c3ccc4sc(C)nc4n3)C2)cc(C)n1 (mixture of isomers) [Compound 43] | 60%

Same assay, conditions: HEK293 cells inducible for P301L mutant human Tau, 6 hours incubation; read-out: Cellular hOGA; pEC50 (converted)

Row | EC50 | Compound
19 | 0.0158 µM | Cc1cc(OC[C@H]2CCCN(C(C)c3ccc4sc(C)nc4n3)C2)cc(C)n1 (mixture of isomers) [Compound 46ab]
20 | 0.1 µM | Cc1cc(OC[C@H]2CCCN(C(C)c3ccc4sc(C)nc4n3)C2)nc(C)n1 (mixture of isomers) [Compound 49ab]

More lines, now with the values behind:

Row | Compound | EC50
21 | Cc1cc(C[C@H]2CCCN(C(C)c3ccc4oc(C)nc4n3)C2)cc(OC(F)(F)F)n1 (mixture of isomers) [Compound 25ab] | 0.2 µM
22 | Cc1cc(C[C@H]2CCCN(C(C)c3cnc4oc(C)nc4c3)C2)cc(C)n1 (mixture of isomers) [Compound 30] | 0.2 µM
23 | Cc1cc(C[C@@H]2CCN(C(C)c3ccc4oc(C(C)C)nc4n3)C2)cc(C)n1 (mixture of isomers) [Compound 31] | > 1 µM
24 | Cc1cc(C[C@@H]2CCN(C(C)c3ccc4sc(C)nc4n3)C2)cc(C)n1 (mixture of isomers) [Compound 43] | 0.631 µM
